The values below come from PubChem BioAssay (NCI).

By TGI is commonly meant the concentration at which net growth stops.

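Briefly, cells in 96-well plates were exposed to five compound concentrations for 48 h, and endpoints were estimated by linear interpolation. At the TGI there is no net growth.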

Among the test systems are RPMI-8226 leukemia; HT29 colon; SF-268 CNS; MDA-MB-231 breast; RXF 393 renal; MDA-N; NCI-H23 lung; SK-MEL-2 melanoma; PC-3 prostate; MOLT-4 leukemia; NCI-H460 lung; NCI/ADR-RES ovarian; SW-620 colon; SNB-75 CNS; MDA-MB-435; HCT-15 colon; SN12C renal; OVCAR-3 ovarian; SK-MEL-28 melanoma; HL-60(TB) leukemia.
Common to all, as to test: DTP human tumour cell line panel, 48 h

With `O=C(N/N=C/c1ccc(Cl)cc1)c1ccccc1Nc1ccccc1C(=O)N/N=C/c1ccc(Cl)cc1`, the TGI with RPMI-8226 leukemia, with HT29 colon, in the assay on SF-268 CNS, with MDA-MB-231 breast, with RXF 393 renal and in the assay on MDA-N was greater than 100 µM in each case. Besides, the TGI in the assay with NCI-H23 lung, in the assay on SK-MEL-2 melanoma, in the assay with PC-3 prostate, with MOLT-4 leukemia, in the assay with NCI-H460 lung and in the assay on NCI/ADR-RES ovarian was greater than 100 µM throughout. Further, the TGI in the assay on SW-620 colon, in the assay on SNB-75 CNS, with MDA-MB-435, in the assay with HCT-15 colon, with SN12C renal and with OVCAR-3 ovarian was greater than 100 µM in each case. The compound also returned a concentration for total growth inhibition (TGI) in the assay on SK-MEL-28 melanoma greater than 100 µM.
Regarding `C=C1CC(C)(COc2ccc3c(C)cc(=O)oc3c2)OC1=O` (centres undefined), the concentration for total growth inhibition (TGI) in the assay on RPMI-8226 leukemia worked out at 2.57 µM; with HT29 colon, 4.5 µM; in the assay on SF-268 CNS it was 20.2 µM; with MDA-MB-231 breast, 15.5 µM; with MDA-N, 8.29 µM; in the assay on NCI-H23 lung, 14.1 µM. Moreover, the TGI was 5.18 µM in the assay on SK-MEL-2 melanoma; 13.5 µM with PC-3 prostate; 4.2 µM in the assay on MOLT-4 leukemia; 20.8 µM in the assay on NCI-H460 lung; 17.6 µM with NCI/ADR-RES ovarian; 3.94 µM in the assay on HL-60(TB) leukemia. For the same compound, the TGI amounted to 3.09 µM with SW-620 colon; 16.3 µM in the assay with SNB-75 CNS; 8.92 µM with MDA-MB-435; 4.23 µM in the assay on HCT-15 colon; 16.8 µM with SN12C renal; 11 µM in the assay with OVCAR-3 ovarian. Moreover, in the assay on SK-MEL-28 melanoma, the TGI stood at 9.02 µM.
With `CSc1ccc(/C=C2\N=C(c3ccccc3)N(/N=C3\C(=O)Nc4ccccc43)C2=O)cc1`, the TGI in the assay on HT29 colon, in the assay with SF-268 CNS, in the assay on MDA-MB-231 breast, in the assay on RXF 393 renal, in the assay on MDA-N and in the assay with NCI-H23 lung was greater than 100 µM throughout. For the same compound, the TGI in the assay on SK-MEL-2 melanoma, in the assay on PC-3 prostate, in the assay with MOLT-4 leukemia, in the assay with NCI-H460 lung, in the assay with NCI/ADR-RES ovarian and with HL-60(TB) leukemia was greater than 100 µM in each case. Also, the TGI in the assay with SW-620 colon, with SNB-75 CNS, in the assay on MDA-MB-435, with HCT-15 colon, with SN12C renal and in the assay on OVCAR-3 ovarian was greater than 100 µM throughout. The compound also came in with a TGI in the assay on SK-MEL-28 melanoma greater than 100 µM.
Consider `C#CC(O)/C=C/C(O)CCCC(O)CC#CC(O)C#CC(O)CCCC(O)/C=C/CCCCCC(=O)CCCCCCCCCCCCCC(O)C(O)C#CC(=O)O` (centres undefined), for which the TGI in the assay on RPMI-8226 leukemia is greater than 50 µM; in the assay on HT29 colon, greater than 50 µM; in the assay on SF-268 CNS it was greater than 50 µM; in the assay with MDA-MB-231 breast, 24.6 µM; in the assay on MDA-N it was greater than 50 µM; in the assay with NCI-H23 lung, greater than 50 µM. In addition, the TGI in the assay on SK-MEL-2 melanoma is 47.3 µM; with PC-3 prostate it was greater than 50 µM; in the assay on MOLT-4 leukemia, 26.6 µM; with NCI-H460 lung, greater than 50 µM; in the assay on NCI/ADR-RES ovarian, greater than 50 µM; with HL-60(TB) leukemia, greater than 50 µM. In addition, the TGI with SNB-75 CNS is 26 µM; with MDA-MB-435, greater than 50 µM; in the assay with HCT-15 colon it was greater than 50 µM; in the assay with SN12C renal, greater than 50 µM; in the assay on SK-MEL-28 melanoma, 25 µM.
As to `CC(=O)O[C@H]1C(=O)[C@@]2(C)C(C(OC(=O)c3ccccc3)[C@]3(O)CC(OC(=O)C(O)C(NC(=O)c4ccccc4)c4cccc(Cl)c4)C(C)=C1C3(C)C)[C@]1(OC(C)=O)CO[C@@H]1C[C@@H]2O` (some centres undefined), the TGI is 9.49 µM in the assay with RPMI-8226 leukemia; greater than 10 µM in the assay with HT29 colon; greater than 10 µM with SF-268 CNS; greater than 10 µM with MDA-MB-231 breast; 3.46 µM in the assay on MDA-N; greater than 10 µM with NCI-H23 lung. Besides, the concentration for total growth inhibition (TGI) in the assay with SK-MEL-2 melanoma was greater than 10 µM; with PC-3 prostate it was greater than 10 µM; in the assay on MOLT-4 leukemia, greater than 10 µM; with NCI-H460 lung, greater than 10 µM; in the assay with NCI/ADR-RES ovarian it was greater than 10 µM; in the assay with HL-60(TB) leukemia, 4.88 µM. The TGI is greater than 10 µM with SW-620 colon; greater than 10 µM with SNB-75 CNS; 5.06 µM in the assay on MDA-MB-435; greater than 10 µM in the assay with HCT-15 colon; greater than 10 µM with SN12C renal; greater than 10 µM in the assay on OVCAR-3 ovarian.
As for `Nc1c(Br)cc(-c2nc3ccccc3s2)cc1Br`, the TGI in the assay with HT29 colon, with SF-268 CNS, with MDA-MB-231 breast, with RXF 393 renal, with MDA-N and in the assay with SK-MEL-2 melanoma was greater than 100 µM each time. The TGI in the assay with PC-3 prostate, in the assay with MOLT-4 leukemia, with NCI-H460 lung, in the assay with NCI/ADR-RES ovarian, in the assay with HL-60(TB) leukemia and with SW-620 colon was greater than 100 µM throughout. The TGI with SNB-75 CNS, in the assay with MDA-MB-435, with HCT-15 colon, in the assay with SN12C renal, in the assay on OVCAR-3 ovarian and with SK-MEL-28 melanoma was greater than 100 µM each time.
With `O=C1OCCC[C@H]2O[C@@H](COCc3ccccc3)C[C@@H]12`, the TGI with RPMI-8226 leukemia, in the assay with HT29 colon, in the assay on SF-268 CNS, in the assay with MDA-MB-231 breast, in the assay with MDA-N and in the assay on NCI-H23 lung was greater than 100 µM throughout. For the same compound, the concentration for total growth inhibition (TGI) with SK-MEL-2 melanoma, in the assay on PC-3 prostate, in the assay on MOLT-4 leukemia, with NCI-H460 lung, in the assay on NCI/ADR-RES ovarian and in the assay on HL-60(TB) leukemia was greater than 100 µM each time. Besides, the TGI with SW-620 colon, with SNB-75 CNS, in the assay on MDA-MB-435, in the assay on HCT-15 colon, in the assay with SN12C renal and in the assay with OVCAR-3 ovarian was greater than 100 µM throughout. In the assay on SK-MEL-28 melanoma, the TGI is greater than 100 µM.
